Tests used:
[1] = target: T1, 15N-labeled Mcl-1 (Homo sapiens, UniProt Q07820); experiment: 1H,15N HSQC NMR chemical shift perturbation; conditions: direct binding to Mcl-1
T1 construct: human Mcl-1 (residues 171–323); made in house; host or cells: E. coli (bacteria grown on M9 minimal medium with 15N ammonium sulphate)
Experimental: NMR studies were performed as previously described. In brief, the ^15N-labeled Mcl-1 protein was prepared and purified using the same protocol as for unlabelled protein with the exception that the bacteria were grown on M9 minimal media supported with 1 g/L of (^15NH4)2SO4. Protein samples were prepared in a 20 mM sodium phosphate, 150 mM NaCl and 1 mM DTT solution at pH 7 in 7% D2O. The binding mode of compounds has been characterized with a solution of uniformly ^15N-labeled Mcl-1 (75 μM) in the absence and presence of added compounds (in 1 or 6% final DMSO) with the indicated molar ratio concentrations. The total volume of each sample was 150 μL and samples were prepared in Bruker tubes (Bruker, # Z117724). All Spectra were acquired at 30 °C on a Bruker 600 MHz NMR spectrometer equipped with a cryogenic probe, processed using Bruker TopSpin and rNMR, and were analysed with Sparky. Plots of chemical shift changes were calculated as ((Δ^1H ppm)2 + (0.2(Δ^15N ppm))2)0.5 of Mcl-1 amide upon addition of compound. The absence of a bar in a chemical shift plot indicates no chemical shift difference or the presence of a proline or residue that is overlapped or not assigned. The cutoff threshold for determining the significance of the chemical shift was based on one standard deviation above the average of all chemical shifts.

[2] = test system: Bcl-2; experiment: FP-based competitive binding assay with FAM-Bid; parameters: species or system human; conditions: ratio of Ki
[3] = test system: Eµ-myc lymphoma cells overexpressing Bcl-xL; experiment: Eµ-myc lymphoma cell viability, flow cytometry; assay type: cell-based, mice; conditions: increasing concentrations, 15 h

T1 sequence (Q07820 171-323): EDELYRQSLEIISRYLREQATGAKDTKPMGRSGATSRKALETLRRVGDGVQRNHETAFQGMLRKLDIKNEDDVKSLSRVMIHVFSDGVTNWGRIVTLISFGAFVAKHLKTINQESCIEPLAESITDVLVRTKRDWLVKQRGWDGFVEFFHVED

Compound | chemical shift perturbations of Mcl-1 amides (HSQC NMR) [1] | fold lower binding affinity to Bcl-2 than to Mcl-1 [2] [fold] | effect on Eµ-myc cells overexpressing Bcl-xL [3]
O=C(CSc1nnc(-c2ccco2)c(-c2ccco2)n1)Nc1ccccc1 [Compound 19] | concentration-dependent perturbations | – | –
O=C(CSc1nnc(-c2ccco2)c(-c2ccco2)n1)Nc1cccc(C(F)(F)F)c1 [Compound 39] | – | > 20 | minimal effect

From publication PMC6033896, “Discovery of Mcl-1 inhibitors from integrated high throughput and virtual screening” (Scientific Reports, 2018)
